# Experimental data published in PubChem BioAssay (NCI).
#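 Step 1: Grow cells in 96-well plates. Step 2: Expose to compound for 48 hours at 5 concentrations. Step 3: Interpolate endpoints linearly; if unreached, use highest concentration. Here, GI50 denotes the concentration required for 50% inhibition of growth. TGI: total growth inhibition.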
# Key:
# Assay in all cases: DTP human tumour cell line panel, 48 h
# MDA-MB-231 breast = test system: MDA-MB-231 breast
# CCRF-CEM leukemia = test system: CCRF-CEM leukemia
# OVCAR-4 ovarian = test system: OVCAR-4 ovarian
# UACC-62 melanoma = test system: UACC-62 melanoma
# HS 578T breast = test system: HS 578T breast
# HT29 colon = test system: HT29 colon
# SN12C renal = test system: SN12C renal
# HOP-92 NSCLC = test system: HOP-92 NSCLC
# RXF 393 renal = test system: RXF 393 renal
# COLO 205 colon = test system: COLO 205 colon
# OVCAR-5 ovarian = test system: OVCAR-5 ovarian
# NCI-H226 lung = test system: NCI-H226 lung
# SF-268 CNS = test system: SF-268 CNS
# TK-10 renal = test system: TK-10 renal
# HCC-2998 colon = test system: HCC-2998 colon
# CAKI-1 renal = test system: CAKI-1 renal
# ACHN renal = test system: ACHN renal
# NCI-H522 lung = test system: NCI-H522 lung
# K-562 leukemia = test system: K-562 leukemia
# EKVX NSCLC = test system: EKVX NSCLC
# UACC-257 melanoma = test system: UACC-257 melanoma
# KM12 colon = test system: KM12 colon
# NCI/ADR-RES ovarian = test system: NCI/ADR-RES ovarian
# BT-549 breast = test system: BT-549 breast
# M14 melanoma = test system: M14 melanoma
# RPMI-8226 leukemia = test system: RPMI-8226 leukemia
# A498 renal = test system: A498 renal
# OVCAR-3 ovarian = test system: OVCAR-3 ovarian
# T-47D breast = test system: T-47D breast
# MCF7 breast = test system: MCF7 breast
# SR leukemia = test system: SR leukemia
# DU-145 prostate = test system: DU-145 prostate
# IGROV1 ovarian = test system: IGROV1 ovarian
# SW-620 colon = test system: SW-620 colon
# NCI-H460 lung = test system: NCI-H460 lung
# NCI-H23 lung = test system: NCI-H23 lung
# MALME-3M melanoma = test system: MALME-3M melanoma
# SK-MEL-2 melanoma = test system: SK-MEL-2 melanoma
# SK-MEL-5 melanoma = test system: SK-MEL-5 melanoma
# HOP-62 NSCLC = test system: HOP-62 NSCLC
# HCT-15 colon = test system: HCT-15 colon
# SK-OV-3 ovarian = test system: SK-OV-3 ovarian
# U251 CNS = test system: U251 CNS
# 786-0 renal = test system: 786-0 renal
# LOX IMVI melanoma = test system: LOX IMVI melanoma
# SF-539 CNS = test system: SF-539 CNS
# SK-MEL-28 melanoma = test system: SK-MEL-28 melanoma
# MOLT-4 leukemia = test system: MOLT-4 leukemia
# A549 NSCLC = test system: A549 NSCLC
# HCT-116 colon = test system: HCT-116 colon
# SNB-75 CNS = test system: SNB-75 CNS
# SNB-19 CNS = test system: SNB-19 CNS
# MDA-MB-435 = test system: MDA-MB-435
# OVCAR-8 ovarian = test system: OVCAR-8 ovarian
# HL-60(TB) leukemia = test system: HL-60(TB) leukemia
# PC-3 prostate = test system: PC-3 prostate
# SF-295 CNS = test system: SF-295 CNS
smiles,measurement,setting,value
CC1=C(CN(O)C(N)=O)C2=C(C)C3(CC3)[C@@](C)(O)C(=O)C2=C1,GI50,MDA-MB-231 breast,324 nM
same,TGI,MDA-MB-231 breast,1780 nM
same,GI50,CCRF-CEM leukemia,29600 nM
same,TGI,CCRF-CEM leukemia,> 100000 nM
same,GI50,OVCAR-4 ovarian,285 nM
same,TGI,OVCAR-4 ovarian,1550 nM
same,GI50,UACC-62 melanoma,224 nM
same,TGI,UACC-62 melanoma,562 nM
same,GI50,HS 578T breast,503 nM
same,TGI,HS 578T breast,3000 nM
same,GI50,HT29 colon,316 nM
same,TGI,HT29 colon,> 34500 nM
same,GI50,SN12C renal,373 nM
same,TGI,SN12C renal,2670 nM
same,GI50,HOP-92 NSCLC,208 nM
same,TGI,HOP-92 NSCLC,618 nM
same,GI50,RXF 393 renal,141 nM
same,TGI,RXF 393 renal,290 nM
same,GI50,COLO 205 colon,185 nM
same,TGI,COLO 205 colon,517 nM
same,GI50,OVCAR-5 ovarian,367 nM
same,TGI,OVCAR-5 ovarian,2270 nM
same,GI50,NCI-H226 lung,235 nM
same,TGI,NCI-H226 lung,644 nM
same,GI50,SF-268 CNS,236 nM
same,TGI,SF-268 CNS,1560 nM
same,GI50,TK-10 renal,308 nM
same,TGI,TK-10 renal,909 nM
same,GI50,HCC-2998 colon,174 nM
same,TGI,HCC-2998 colon,414 nM
same,GI50,CAKI-1 renal,253 nM
same,TGI,CAKI-1 renal,1350 nM
same,GI50,ACHN renal,236 nM
same,TGI,ACHN renal,572 nM
same,GI50,NCI-H522 lung,1230 nM
same,TGI,NCI-H522 lung,4650 nM
same,GI50,K-562 leukemia,16300 nM
same,TGI,K-562 leukemia,> 100000 nM
same,GI50,EKVX NSCLC,346 nM
same,TGI,EKVX NSCLC,1530 nM
same,GI50,UACC-257 melanoma,280 nM
same,TGI,UACC-257 melanoma,765 nM
same,GI50,KM12 colon,530 nM
same,TGI,KM12 colon,5410 nM
same,GI50,NCI/ADR-RES ovarian,381 nM
same,TGI,NCI/ADR-RES ovarian,3110 nM
same,GI50,BT-549 breast,367 nM
same,TGI,BT-549 breast,1590 nM
same,GI50,M14 melanoma,269 nM
same,TGI,M14 melanoma,699 nM
same,GI50,RPMI-8226 leukemia,7190 nM
same,TGI,RPMI-8226 leukemia,> 100000 nM
same,GI50,A498 renal,175 nM
same,TGI,A498 renal,359 nM
same,GI50,OVCAR-3 ovarian,260 nM
same,TGI,OVCAR-3 ovarian,769 nM
same,GI50,T-47D breast,214 nM
same,TGI,T-47D breast,1720 nM
same,GI50,MCF7 breast,921 nM
same,TGI,MCF7 breast,10100 nM
same,GI50,SR leukemia,7600 nM
same,TGI,SR leukemia,> 80900 nM
same,GI50,DU-145 prostate,43.9 nM
same,TGI,DU-145 prostate,1110 nM
same,GI50,IGROV1 ovarian,208 nM
same,TGI,IGROV1 ovarian,940 nM
same,GI50,SW-620 colon,10800 nM
same,TGI,SW-620 colon,> 100000 nM
same,GI50,NCI-H460 lung,45.2 nM
same,TGI,NCI-H460 lung,909 nM
same,GI50,NCI-H23 lung,109 nM
same,TGI,NCI-H23 lung,544 nM
same,GI50,MALME-3M melanoma,205 nM
same,TGI,MALME-3M melanoma,424 nM
same,GI50,SK-MEL-2 melanoma,356 nM
same,TGI,SK-MEL-2 melanoma,1210 nM
same,GI50,SK-MEL-5 melanoma,195 nM
same,TGI,SK-MEL-5 melanoma,409 nM
same,GI50,HOP-62 NSCLC,178 nM
same,TGI,HOP-62 NSCLC,996 nM
same,GI50,HCT-15 colon,267 nM
same,TGI,HCT-15 colon,883 nM
same,GI50,SK-OV-3 ovarian,305 nM
same,TGI,SK-OV-3 ovarian,1090 nM
same,GI50,U251 CNS,337 nM
same,GI50,786-0 renal,343 nM
same,GI50,LOX IMVI melanoma,402 nM
same,TGI,LOX IMVI melanoma,2040 nM
same,GI50,SF-539 CNS,216 nM
same,TGI,SF-539 CNS,556 nM
same,GI50,SK-MEL-28 melanoma,229 nM
same,TGI,SK-MEL-28 melanoma,505 nM
same,GI50,MOLT-4 leukemia,21300 nM
same,TGI,MOLT-4 leukemia,> 100000 nM
same,GI50,A549 NSCLC,118 nM
same,TGI,A549 NSCLC,1220 nM
same,GI50,HCT-116 colon,267 nM
same,GI50,SNB-75 CNS,215 nM
same,TGI,SNB-75 CNS,464 nM
same,GI50,SNB-19 CNS,469 nM
same,TGI,SNB-19 CNS,6180 nM
same,GI50,MDA-MB-435,662 nM
same,TGI,MDA-MB-435,2370 nM
same,GI50,OVCAR-8 ovarian,337 nM
same,TGI,OVCAR-8 ovarian,6680 nM
same,GI50,HL-60(TB) leukemia,279 nM
same,TGI,HL-60(TB) leukemia,3550 nM
same,GI50,PC-3 prostate,398 nM
same,TGI,PC-3 prostate,5240 nM
same,GI50,SF-295 CNS,252 nM
same,TGI,SF-295 CNS,1160 nM
